Values after ≈ are worked out from the molar mass of the structure shown.
Columns and labels:
Mycobacterium avium [1] = conditions: 104 mc'2 3
[2] = Safety index, ratio of MTC for test compound to MTC for thioridazine for cytotoxicity in human monocyte-derived macrophages; type: cell-based, Macrophage cell line
Mycobacterium avium [3] = conditions: 104 mc'2 3; remark: listed apart in the source
Mycobacterium avium [4] = conditions: isolate MAV1
Mycobacterium avium [5] = conditions: isolate MAV2
Mycobacterium avium [6] = conditions: 104 mc'2 4
Mycobacterium avium [7] = conditions: isolate MAV1; remark: listed apart in the source
Description: Inhibition of multidrug resistance efflux pump in Mycobacterium avium isolate MAV1 assessed as potentiation of ciprofloxacin-induced antibacterial activity by measuring ciprofloxacin MIC at 1/4 MIC incubated for 3 days by MTT assay

Mycobacterium avium [8] = conditions: 104 mc'2 4; remark: listed apart in the source
Mycobacterium avium [9] = conditions: 104
Mycobacterium avium [10] = conditions: isolate MAV2; remark: listed apart in the source
Mycobacterium avium [11] = conditions: 104; remark: listed apart in the source
Mycobacterium avium [12] = conditions: 104 mc'2 4; remark: listed apart in the source
Mycobacterium avium [13] = conditions: 104; remark: listed apart in the source
Description: Inhibition of multidrug resistance efflux pump in Mycobacterium avium 104 assessed as potentiation of clarithromycin -induced antibacterial activity by measuring clarithromycin MIC at 1/4 MIC incubated for 3 days by MTT assay

Mycobacterium avium [14] = conditions: 104 mc'2 3; remark: listed apart in the source
[15] = Safety index, ratio of CC50 for test compound to CC50 for chlorpromazine for cytotoxicity in human monocyte-derived macrophages; type: cell-based, Macrophage cell line
Mycobacterium avium [16] = conditions: 104; remark: listed apart in the source
Description: Inhibition of multidrug resistance efflux pump in Mycobacterium avium 104 assessed as potentiation of clarithromycin -induced antibacterial activity by measuring clarithromycin MIC at 1/2 MIC incubated for 3 days by MTT assay

Mycobacterium avium [17] = conditions: 104; remark: listed apart in the source
Mycobacterium avium [18] = conditions: isolate MAV4
Mycobacterium avium [19] = conditions: isolate MAV2; remark: listed apart in the source
Mycobacterium avium [20] = assay: Antimycobacterial activity against Mycobacterium avium isolate MAV3 assessed as reduction in bacterial viability incubated for 3 days by MTT assay; type: organism-based; conditions: 72 h
Mycobacterium avium [21] = conditions: in vivo, 72 h
Description: Antimycobacterial activity against Mycobacterium avium 104 mc'2 3 assessed as reduction in bacterial viability incubated for 3 days by MTT assay

Mycobacterium avium [22] = conditions: 104 mc'2 4; remark: listed apart in the source
Mycobacterium avium [23] = conditions: isolate MAV1; remark: listed apart in the source
Description: Inhibition of multidrug resistance efflux pump in Mycobacterium avium isolate MAV1 assessed as potentiation of ofloxacin-induced antibacterial activity by measuring ofloxacin MIC at 1/2 MIC incubated for 3 days by MTT assay (Rvb = 4 ug/ml)

[24] = system: Mycobacterium avium subsp. avium ATCC 25291
Description: Inhibition of multidrug resistance efflux pump in Mycobacterium avium ATCC 25291 assessed as potentiation of clarithromycin -induced antibacterial activity by measuring clarithromycin MIC at 1/4 MIC incubated for 3 days by MTT assay

Mycobacterium avium [25] = conditions: isolate MAV4; remark: listed apart in the source
Description: Inhibition of multidrug resistance efflux pump in Mycobacterium avium isolate MAV4 assessed as potentiation of clarithromycin -induced antibacterial activity by measuring clarithromycin MIC at 1/4 MIC incubated for 3 days by MTT assay

Mycobacterium avium [26] = conditions: 104; remark: listed apart in the source
Mycobacterium avium [27] = conditions: isolate MAV3
Mycobacterium avium [28] = conditions: isolate MAV3; remark: listed apart in the source
Mycobacterium avium [29] = conditions: isolate MAV4; remark: listed apart in the source
Mycobacterium avium [30] = conditions: 104 mc'2 4; remark: listed apart in the source
Mycobacterium avium [31] = conditions: isolate MAV3; remark: listed apart in the source
Mycobacterium avium [32] = conditions: isolate MAV2; remark: listed apart in the source
[33] = Safety index, ratio of CC50 for test compound to CC50 for thioridazine for cytotoxicity in human monocyte-derived macrophages; type: cell-based, Macrophage cell line
Mycobacterium avium [34] = conditions: isolate MAV3; remark: listed apart in the source
Mycobacterium avium [35] = conditions: isolate MAV1; remark: listed apart in the source
Description: Inhibition of multidrug resistance efflux pump in Mycobacterium avium isolate MAV1 assessed as potentiation of ofloxacin-induced antibacterial activity by measuring ofloxacin MIC at 1/4 MIC incubated for 3 days by MTT assay (Rvb = 4 ug/ml)

Mycobacterium avium [36] = assay: Antimycobacterial activity against Mycobacterium avium isolate MAV4 assessed as reduction in bacterial viability incubated for 3 days by MTT assay; type: organism-based; conditions: 72 h
Mycobacterium avium [37] = conditions: isolate MAV1; remark: listed apart in the source
Mycobacterium avium [38] = conditions: isolate MAV1; remark: listed apart in the source
Mycobacterium avium [39] = conditions: isolate MAV3; remark: listed apart in the source
Mycobacterium avium [40] = conditions: 104 mc'2 4; remark: listed apart in the source
Mycobacterium avium [41] = conditions: isolate MAV3; remark: listed apart in the source
Mycobacterium avium [42] = conditions: isolate MAV1; remark: listed apart in the source
Mycobacterium avium [43] = conditions: isolate MAV3; remark: listed apart in the source
Mycobacterium avium [44] = conditions: 104 mc'2 4; remark: listed apart in the source
Mycobacterium avium [45] = conditions: isolate MAV4; remark: listed apart in the source
Mycobacterium avium [46] = conditions: 104; remark: listed apart in the source
Mycobacterium avium [47] = conditions: 104; remark: listed apart in the source
Mycobacterium avium [48] = conditions: 104 mc'2 3; remark: listed apart in the source
Mycobacterium avium [49] = assay: Antimycobacterial activity against Mycobacterium avium isolate MAV2 assessed as reduction in bacterial viability incubated for 3 days by MTT assay; type: organism-based; conditions: 72 h
Mycobacterium avium [50] = conditions: isolate MAV4; remark: listed apart in the source
Mycobacterium avium [51] = conditions: 104; remark: listed apart in the source
Mycobacterium avium [52] = conditions: isolate MAV2; remark: listed apart in the source
Description: Inhibition of multidrug resistance efflux pump in Mycobacterium avium isolate MAV2 assessed as potentiation of clarithromycin -induced antibacterial activity by measuring clarithromycin MIC at 1/4 MIC incubated for 3 days by MTT assay (Rvb = >1024 ug/ml)

[53] = Cytotoxicity in human monocyte-derived macrophages assessed as reduction in cell viability incubated for 3 days by alamar blue dye based assay; parameters: species or system Macrophage cell line
Mycobacterium avium [54] = conditions: isolate MAV3; remark: listed apart in the source
[55] = system: Mycobacterium avium subsp. avium ATCC 25291; remark: listed apart in the source
Mycobacterium avium [56] = conditions: isolate MAV4; remark: listed apart in the source
Description: Inhibition of multidrug resistance efflux pump in Mycobacterium avium isolate MAV4 assessed as potentiation of clarithromycin -induced antibacterial activity by measuring clarithromycin MIC at 1/2 MIC incubated for 3 days by MTT assay

[57] = system: Mycobacterium avium subsp. avium ATCC 25291; remark: listed apart in the source
Description: Inhibition of multidrug resistance efflux pump in Mycobacterium avium ATCC 25291 assessed as potentiation of ethidium bromide-induced antibacterial activity by measuring ethidium bromide MIC at 1/4 MIC incubated for 3 days by MTT assay

Mycobacterium avium [58] = conditions: 104 mc'2 4; remark: listed apart in the source
Mycobacterium avium [59] = conditions: isolate MAV1; remark: listed apart in the source
Description: Inhibition of multidrug resistance efflux pump in Mycobacterium avium isolate MAV1 assessed as potentiation of ciprofloxacin-induced antibacterial activity by measuring ciprofloxacin MIC at 1/2 MIC incubated for 3 days by MTT assay (Rvb = 2 ug/ml)

[60] = system: Mycobacterium avium subsp. avium ATCC 25291; remark: listed apart in the source
Mycobacterium avium [61] = conditions: isolate MAV1; remark: listed apart in the source
Mycobacterium avium [62] = conditions: in vivo, 72 h; remark: listed apart in the source
Description: Antimycobacterial activity against Mycobacterium avium 104 mc'2 4 assessed as reduction in bacterial viability incubated for 3 days by MTT assay

Mycobacterium avium [63] = conditions: isolate MAV4; remark: listed apart in the source
Mycobacterium avium [64] = assay: Antimycobacterial activity against Mycobacterium avium isolate MAV1 assessed as reduction in bacterial viability incubated for 3 days by MTT assay; type: organism-based; conditions: in vitro, 72 h
Mycobacterium avium [65] = conditions: isolate MAV4; remark: listed apart in the source
Mycobacterium avium [66] = conditions: 104; remark: listed apart in the source
[67] = system: Mycobacterium avium subsp. avium ATCC 25291; remark: listed apart in the source

CCCOc1ccc(-c2cn(CCN3CCCCCC3)c3ccccc3c2=O)cc1
MIC (Mycobacterium avium [1]): < 4 µg/mL
selectivity ratio [2]: 4 to 6
MIC (Mycobacterium avium [3]): < 4 µg/mL
MIC (Mycobacterium avium [4]): < 0.125 µg/mL
MIC (Mycobacterium avium [5]): 256 µg/mL (≈ 633 µM)
MIC (Mycobacterium avium [6]): < 4 µg/mL
MIC (Mycobacterium avium [7]): 0.5 µg/mL (≈ 1.24 µM)
MIC (Mycobacterium avium [8]): < 0.125 µg/mL
MIC (Mycobacterium avium [9]): 8 µg/mL (≈ 19.8 µM)
MIC (Mycobacterium avium [10]): 512 µg/mL (≈ 1270 µM)
MIC (Mycobacterium avium [11]): < 0.195 µg/mL
MIC (Mycobacterium avium [12]): 1 µg/mL (≈ 2.47 µM)
MIC (Mycobacterium avium [13]): 1 µg/mL (≈ 2.47 µM)
MIC (Mycobacterium avium [14]): < 0.125 µg/mL
selectivity ratio [15]: 2 to 4
MIC (Mycobacterium avium [16]): < 0.125 µg/mL
MIC (Mycobacterium avium [17]): < 4 µg/mL
MIC (Mycobacterium avium [18]): < 0.125 µg/mL
MIC (Mycobacterium avium [19]): 32 µg/mL (≈ 79.1 µM)
MIC (Mycobacterium avium [20]): 128 µg/mL (≈ 316 µM)
MIC (Mycobacterium avium [21]): 256 µg/mL (≈ 633 µM)
MIC (Mycobacterium avium [22]): 0.39 µg/mL (≈ 0.964 µM)
MIC (Mycobacterium avium [23]): < 0.0625 µg/mL
MIC [24]: 8 µg/mL (≈ 19.8 µM)
MIC (Mycobacterium avium [25]): 4 µg/mL (≈ 9.89 µM)
MIC (Mycobacterium avium [26]): < 4 µg/mL
MIC (Mycobacterium avium [27]): 1 µg/mL (≈ 2.47 µM)
MIC (Mycobacterium avium [28]): 0.78 µg/mL (≈ 1.93 µM)
MIC (Mycobacterium avium [29]): < 0.39 µg/mL
MIC (Mycobacterium avium [30]): 128 µg/mL (≈ 316 µM)
MIC (Mycobacterium avium [31]): 4 µg/mL (≈ 9.89 µM)
MIC (Mycobacterium avium [32]): < 0.195 µg/mL
selectivity ratio [33]: 4 to 6
MIC (Mycobacterium avium [34]): 2 µg/mL (≈ 4.94 µM)
MIC (Mycobacterium avium [35]): 2 µg/mL (≈ 4.94 µM)
MIC (Mycobacterium avium [36]): 256 µg/mL (≈ 633 µM)
MIC (Mycobacterium avium [37]): < 4 µg/mL
MIC (Mycobacterium avium [38]): < 4 µg/mL
MIC (Mycobacterium avium [39]): < 4 µg/mL
MIC (Mycobacterium avium [40]): < 0.195 µg/mL
MIC (Mycobacterium avium [41]): 0.5 µg/mL (≈ 1.24 µM)
MIC (Mycobacterium avium [42]): < 4 µg/mL
MIC (Mycobacterium avium [43]): 0.5 µg/mL (≈ 1.24 µM)
MIC (Mycobacterium avium [44]): < 4 µg/mL
MIC (Mycobacterium avium [45]): 8 µg/mL (≈ 19.8 µM)
MIC (Mycobacterium avium [46]): 1 µg/mL (≈ 2.47 µM)
MIC (Mycobacterium avium [47]): 4 µg/mL (≈ 9.89 µM)
MIC (Mycobacterium avium [48]): < 0.125 µg/mL
MIC (Mycobacterium avium [49]): 128 µg/mL (≈ 316 µM)
MIC (Mycobacterium avium [50]): < 2 µg/mL
MIC (Mycobacterium avium [51]): < 4 µg/mL
MIC (Mycobacterium avium [52]): 256 µg/mL (≈ 633 µM)
CC50 at 72 h ([53]; human monocyte-derived macrophages): 50 µM
MTC ([53]; macrophage cell line, 72 h): 20 µM
MIC (Mycobacterium avium [54]): 32 µg/mL (≈ 79.1 µM)
MIC [55]: < 1 µg/mL
MIC (Mycobacterium avium [56]): < 0.0625 µg/mL
MIC [57]: 6.25 µg/mL (≈ 15.4 µM)
MIC (Mycobacterium avium [58]): 2 µg/mL (≈ 4.94 µM)
MIC (Mycobacterium avium [59]): < 0.031 µg/mL
MIC [60]: < 0.25 µg/mL
MIC (Mycobacterium avium [61]): < 4 µg/mL
MIC (Mycobacterium avium [62]): 256 µg/mL (≈ 633 µM)
MIC (Mycobacterium avium [63]): 2 µg/mL (≈ 4.94 µM)
MIC (Mycobacterium avium [64]): 128 µg/mL (≈ 316 µM)
MIC (Mycobacterium avium [65]): < 4 µg/mL
MIC (Mycobacterium avium [66]): < 4 µg/mL
MIC [67]: 8 µg/mL (≈ 19.8 µM)

Source: ChEMBL document CHEMBL4130462, “Natural isoflavone biochanin A as a template for the design of new and potent 3-phenylquinolone efflux inhibitors against Mycobacterium avium” (Eur J Med Chem, 2017)
